Key:
Format in all cases: cell-based
membrane-bound PR3 = molecular target: T1, membrane-bound PR3 (Homo sapiens, UniProt P24158); assay: Membrane-bound PR3 activity of neutrophils cultured with CM of SCP28 cells overexpressing CTSC; settings: Sivelestat 10 μM, Alvelestat 10 μM, CTSGi 20 μM, FIG. 7D
T1 construct: endogenous in cells; host or cells: human peripheral-blood neutrophils (whole-cell suspension)
T1 sequence (P24158 28-248): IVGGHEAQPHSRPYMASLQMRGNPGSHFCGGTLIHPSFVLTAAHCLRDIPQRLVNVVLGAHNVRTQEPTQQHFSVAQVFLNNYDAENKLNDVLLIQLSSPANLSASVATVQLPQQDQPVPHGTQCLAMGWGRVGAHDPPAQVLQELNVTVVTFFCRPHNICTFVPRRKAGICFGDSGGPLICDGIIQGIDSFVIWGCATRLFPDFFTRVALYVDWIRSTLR
Procedure: The procedure of enzyme activity assays were conducted as previously reported (Korkmaz et aL, “Neutrophil proteinase 3 and dipeptidyl peptidase I (cathepsin C) as pharmacological targets in granulomatosis with polyangiitis (Wegener granulomatosis),” Semin. Immunopathol. 35:411-421 (2008)). The PR3 or NE enzymatic activity was quantified by detecting the rate of hydrolysis of the PR3-specific substrate (Abz)-VADnorVADRQ-(EDDnp) or NE specific substrate (Abz)-APEEIMRRQ-(EDDnp) by cell suspension or free enzymes. To analyze membrane-bound PR3 activity, neutrophils were cultured in cancer cell CM or non-conditioned medium, and treated with DMSO or various inhibitors, including Sivelestat (10 μM), Alvelestat (10 μM) and CTSGi (20 μM) for 30-45 min at 37° C. Then, cells were suspended in activity buffer (5×10^6 per ml, PBS, 4 mM EGTA, pH 7.4) with 15 μM of the PR3-specific substrate, and the kinetic of hydrolysis was followed by measuring the fluorescence at λex=320 nm and λem=420 nm. For activation of PR3 in isolated plasma membrane fraction, recombinant human CTSC (1071-CY, R&D) was activated according to the manufacturer's instruction. […] The activity of free PR3 and NE were measured in the assay buffer (50 mM Tris, 750 mM NaCl, pH 7.4) with 15 μM specific substrates by recording the fluorescence at λex=320 nm and λem=420 nm. […]

gastric cancer cells AGS = assay: NET-promoted tumor sphere formation, gastric cancer; settings: neutrophil medium, CM with or without brensocatib, FIG. 11M
Procedure: (§1) To test the therapeutic effects of brensocatib in different cancer types in vitro, the ability of brensocatib to inhibit NET-promoted tumor sphere formation is investigated. The neutrophils are cultured with conditioned medium from tumor cells of colon cancer, liver cancer, lung cancer, gastric cancer and pancreatic cancer with or without brensocatib treatment to activate NETosis, and then the neutrophil medium was used in tumor sphere formation of these cancer cells to analyze the effect of neutrophil medium to facilitate tumor cell growth. The amount of tumorsphere in each sample is then determined by imaging.

[1] = system: bone-metastatic breast cancer cell SCP2; assay: Tumor sphere formation of bone-metastatic breast cancer cells in neutrophil medium; settings: neutrophils cultured with cancer cell CM with or without brensocatib, FIG. 11E
Procedure: The neutrophils are cultured with conditioned medium from the cancer cells with or without brensocatib treatment to activate NETosis, and then the neutrophil medium was used in tumor sphere formation of bone and liver-metastatic breast cancer cells to analyze the effect of neutrophil medium to facilitate tumor cell growth. The data are shown in FIG. 11E for bone-metastatic breast cancer cell SCP2 and FIG. 11H for liver-metastatic breast cancer cell SCP16.

lung cancer cells A549 = assay: NET-promoted tumor sphere formation, lung cancer; settings: neutrophil medium, CM with or without brensocatib, FIG. 11L
Procedure: as §1

| upregulated PR3 activity resulting from CTSC overexpression (membrane-bound PR3) | Compound | NET-promoted tumor sphere formation (in vitro tumor growth) (gastric cancer cells AGS) | capability of drug-treated neutrophils to facilitate tumor cell growth (tumor sphere formation) [1] | NET-promoted tumor sphere formation (in vitro tumor growth) (lung cancer cells A549) |
| --- | --- | --- | --- | --- |
| significantly reduces | CC(C)(C)C(=O)Oc1ccc(S(=O)(=O)Nc2ccccc2C(=O)NCC(=O)O)cc1 [Silvelestat] |  |  |  |
|  | Cn1c(=O)oc2ccc(-c3ccc(C[C@@H](C#N)NC(=O)[C@@H]4CNCCCO4)cc3)cc21 [brensocatib, (2S)—N-{(1S)-1-cyano-2-[4-(3-methyl-2-oxo-2,3-dihydro-1,3-benzoxazol-5-yl)phenyl]ethyl}-1,4-oxazepane-2-carboxamide] | inhibit in vitro tumor growth | significantly weakened | inhibit in vitro tumor growth |

Reference: patent US12697328B2, “Methods for treating metastasis with cathepsin C inhibitors” (Shanghai Institute of Nutrition and Health, Chinese Academy …, priority 2020, dated 2026)
